Measurements as given in ChEMBL document CHEMBL5352388 (Eur J Med Chem, 2022).
Calls of active or inactive are those of the source. The rule behind the calls is not given here.

Experiments:
[1] = Half life in human liver microsomes measured upto 60 mins in presence of NADPH by LC/MS/MS analysis; format: ADME, Microsome
[2] = Intrinsic clearance in human liver microsomes measured upto 60 mins in presence of NADPH by LC/MS/MS analysis; format: ADME, Microsome; conditions: read-out: CLH
[3] = Intrinsic clearance in human liver measured upto 60 mins in presence of NADPH by LC/MS/MS analysis; format: ADME, tissue-based; conditions: read-out: CLH
[4] = Metabolic stability in human liver microsomes assessed as compound remaining measured upto 60 mins by LC/MS/MS analysis; format: ADME, Microsome; conditions: read-out: Stability
CYP1A2 = target: T1, CYP1A2 (Homo sapiens, UniProt P05177); assay: Inhibition of CYP1A2 (unknown origin) at 10 uM incubated for 20 mins in presence of NADPH by LC/MS/MS analysis relative to control; format: ADME
T1 sequence (P05177 whole entry): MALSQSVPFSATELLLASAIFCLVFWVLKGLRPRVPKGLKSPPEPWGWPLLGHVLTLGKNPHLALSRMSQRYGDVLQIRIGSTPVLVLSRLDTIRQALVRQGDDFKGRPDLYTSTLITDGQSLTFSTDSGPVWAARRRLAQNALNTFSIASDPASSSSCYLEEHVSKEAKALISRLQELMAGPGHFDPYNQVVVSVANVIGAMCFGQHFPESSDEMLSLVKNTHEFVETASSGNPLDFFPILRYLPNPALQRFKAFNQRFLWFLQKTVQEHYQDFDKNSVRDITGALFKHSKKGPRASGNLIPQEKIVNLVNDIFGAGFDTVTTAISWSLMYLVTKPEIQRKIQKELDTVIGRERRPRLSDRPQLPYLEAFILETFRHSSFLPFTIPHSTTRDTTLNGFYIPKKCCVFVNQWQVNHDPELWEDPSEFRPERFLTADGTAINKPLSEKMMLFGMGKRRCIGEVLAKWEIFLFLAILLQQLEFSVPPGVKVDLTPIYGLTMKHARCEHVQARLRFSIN

CYP2C9 = CYP2C9 (Homo sapiens, UniProt P11712); assay: Inhibition of CYP2C9 (unknown origin) at 10 uM incubated for 20 mins in presence of NADPH by LC/MS/MS analysis relative to control; format: ADME
CYP2C9, sequence (P11712 whole entry): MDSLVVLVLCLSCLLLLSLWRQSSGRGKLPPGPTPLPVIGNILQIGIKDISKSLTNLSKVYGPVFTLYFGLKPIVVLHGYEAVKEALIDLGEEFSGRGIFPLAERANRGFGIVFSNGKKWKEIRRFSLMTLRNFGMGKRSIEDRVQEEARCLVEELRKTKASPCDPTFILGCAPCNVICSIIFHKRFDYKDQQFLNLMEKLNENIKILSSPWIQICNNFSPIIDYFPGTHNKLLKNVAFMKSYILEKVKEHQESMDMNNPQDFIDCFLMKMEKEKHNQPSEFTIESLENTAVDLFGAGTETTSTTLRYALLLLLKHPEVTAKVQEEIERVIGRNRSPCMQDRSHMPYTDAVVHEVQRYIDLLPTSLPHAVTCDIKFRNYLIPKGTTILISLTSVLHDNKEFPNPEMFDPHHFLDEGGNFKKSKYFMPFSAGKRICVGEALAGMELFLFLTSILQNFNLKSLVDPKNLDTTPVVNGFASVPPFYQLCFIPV

CYP2C19 = CYP2C19 (Homo sapiens, UniProt P33261); assay: Inhibition of CYP2C19 (unknown origin) at 10 uM incubated for 20 mins in presence of NADPH by LC/MS/MS analysis relative to control; format: ADME
CYP2C19, sequence (P33261 whole entry): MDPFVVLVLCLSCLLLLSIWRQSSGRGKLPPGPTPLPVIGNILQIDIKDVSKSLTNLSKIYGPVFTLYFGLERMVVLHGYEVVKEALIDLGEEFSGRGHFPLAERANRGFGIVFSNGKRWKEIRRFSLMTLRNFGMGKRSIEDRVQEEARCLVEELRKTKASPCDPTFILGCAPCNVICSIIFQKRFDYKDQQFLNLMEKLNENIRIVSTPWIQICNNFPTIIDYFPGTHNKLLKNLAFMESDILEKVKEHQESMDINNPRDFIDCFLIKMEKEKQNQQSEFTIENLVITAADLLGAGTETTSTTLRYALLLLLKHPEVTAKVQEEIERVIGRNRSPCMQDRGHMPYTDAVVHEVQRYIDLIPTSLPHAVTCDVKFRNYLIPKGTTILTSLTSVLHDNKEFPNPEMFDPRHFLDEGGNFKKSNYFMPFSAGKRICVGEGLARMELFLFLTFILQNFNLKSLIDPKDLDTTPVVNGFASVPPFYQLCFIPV

CYP2D6 = CYP2D6 (Homo sapiens, UniProt P10635); assay: Inhibition of CYP2D6 (unknown origin) at 10 uM incubated for 20 mins in presence of NADPH by LC/MS/MS analysis relative to control; format: ADME
CYP2D6, sequence (P10635 whole entry): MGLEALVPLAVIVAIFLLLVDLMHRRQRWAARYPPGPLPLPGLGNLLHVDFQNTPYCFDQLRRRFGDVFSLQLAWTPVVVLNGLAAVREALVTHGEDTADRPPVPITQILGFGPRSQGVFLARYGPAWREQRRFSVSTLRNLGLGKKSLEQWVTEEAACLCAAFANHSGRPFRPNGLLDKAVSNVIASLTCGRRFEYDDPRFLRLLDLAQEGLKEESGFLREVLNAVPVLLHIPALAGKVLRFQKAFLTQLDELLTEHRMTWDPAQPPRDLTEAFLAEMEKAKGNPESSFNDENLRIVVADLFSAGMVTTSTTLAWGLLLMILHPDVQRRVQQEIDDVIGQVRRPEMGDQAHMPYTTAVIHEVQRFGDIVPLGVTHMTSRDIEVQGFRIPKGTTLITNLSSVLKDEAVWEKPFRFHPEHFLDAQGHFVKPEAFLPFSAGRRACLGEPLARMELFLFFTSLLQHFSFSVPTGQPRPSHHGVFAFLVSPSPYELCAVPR

[5] = Cmax in Sprague-Dawley rat at 10 mg/kg,po by LC-MS/MS analysis; format: ADME, organism-based; design: dose 10 mg/kg, route po; conditions: in vivo
[6] = Half life in Sprague-Dawley rat at 10 mg/kg,po by LC-MS/MS analysis; format: ADME, organism-based; conditions: in vivo
[7] = Oral bioavailability in Sprague-Dawley rat at 10 mg/kg by LC-MS/MS analysis; format: ADME, organism-based; conditions: in vivo
[8] = Half life in Sprague-Dawley rat at 3 mg/kg,iv by LC-MS/MS analysis; format: ADME, organism-based; conditions: in vivo
[9] = Clearance in Sprague-Dawley rat at 3 mg/kg,iv by LC-MS/MS analysis; format: ADME, organism-based; conditions: in vivo
[10] = Volume of distribution in steady state in Sprague-Dawley rat at 3 mg/kg,iv by LC-MS/MS analysis; format: ADME, organism-based; conditions: in vivo, read-out: Vdss
[11] = AUC (0-infinity) in Sprague-Dawley rat at 3 mg/kg,iv by LC-MS/MS analysis; format: ADME, organism-based; design: dose 3 mg/kg, route iv; conditions: in vivo
A549 [12] = assay: Inhibition of colony formation in human A549 cells at 2 uM; format: functional, cell-based
A549 [13] = assay: Antiproliferative activity against human A549 cells assessed as reduction of Edu positive cells at 2 uM incubated for 48 hrs by EdU incorporation based laser scanning microscopic analysis; format: functional, cell-based
[14] = target: T2, Lysine-specific histone demethylase 1A (Homo sapiens, UniProt O60341); assay: Inhibition of LSD1 in human A549 cells assessed as increase in H3K4me2 protein level at 1 to 4 uM incubated for 72 hrs by Western blotting assay; format: cell-based; conditions: dose 1-4 µM
[15] = target: T2, Lysine-specific histone demethylase 1A; assay: Inhibition of LSD1 in human A549 cells assessed as increase in H3K9me1 protein level at 1 to 4 uM incubated for 72 hrs by Western blotting assay; format: cell-based; conditions: dose 1-4 µM
A549 [16] = assay: Induction of apoptosis in human A549 cells at 4 uM incubated for 48 hrs by Annexin V-FITC/PI staining based flow cytometry method; format: functional
A549 [17] = assay: Induction of apoptosis in human A549 cells assessed as upregulation of Bax at 1 to 4 uM incubated for 72 hrs by Western blotting assay; format: functional, cell-based; conditions: dose 1-4 µM
A549 [18] = assay: Induction of apoptosis in human A549 cells assessed as downregulation of BCL-2 at 1 to 4 uM incubated for 72 hrs by Western blotting assay; format: functional, cell-based; conditions: dose 1-4 µM
A549 [19] = assay: Antitumor activity against human A549 cells xenografted in BALB/c mouse assessed as reduction in tumor growth at 20 mg/kg,ip administrated for 15 days; format: functional, organism-based; conditions: time 15.0 day
[20] = Toxicity in BALB/c mouse xenografted with human A549 cells assessed as change in body weight at 20 mg/kg,ip administrated for 15 days; format: organism-based; conditions: in vivo, 360 h, time 15 day
A549 [21] = assay: Antitumor activity against human A549 cells xenografted in BALB/c mouse assessed as reduction in KI67 positive cells at 20 mg/kg,ip administrated for 15 days; format: functional, organism-based; conditions: time 15.0 day
A549 [22] = assay: Antitumor activity against human A549 cells xenografted in BALB/c mouse assessed as decrease in tumor cell density at 20 mg/kg,ip administrated for 15 days; format: functional, organism-based; conditions: time 15.0 day
A549 [23] = assay: Antitumor activity against human A549 cells xenografted in BALB/c mouse assessed as chromatin condensation at 20 mg/kg,ip administrated for 15 days; format: functional, organism-based; conditions: time 15.0 day
A549 [24] = assay: Antitumor activity against human A549 cells xenografted in BALB/c mouse assessed as appearance of pyknosis at 20 mg/kg,ip administrated for 15 days; format: functional, organism-based; conditions: time 15.0 day
A549 [25] = assay: Antitumor activity against human A549 cells xenografted in BALB/c mouse assessed as decrease in tumor cell density at 10 mg/kg,ip administrated for 15 days; format: functional, organism-based; conditions: time 15.0 day
A549 [26] = assay: Antitumor activity against human A549 cells xenografted in BALB/c mouse assessed as chromatin condensation at 10 mg/kg,ip administrated for 15 days; format: functional, organism-based; conditions: time 15.0 day
A549 [27] = assay: Antitumor activity against human A549 cells xenografted in BALB/c mouse assessed as appearance of pyknosis at 10 mg/kg,ip administrated for 15 days; format: functional, organism-based; conditions: time 15.0 day
A549 [28] = assay: Induction of apoptosis in human A549 cells assessed as downregulation of AKT phosphorylation incubated for 72 hrs by Western blotting assay; format: functional, cell-based
A549 [29] = assay: Induction of apoptosis in human A549 cells assessed as downregulation of mTOR phosphorylation incubated for 72 hrs by Western blotting assay; format: functional, cell-based
NCI-H460 = assay: cells; conditions: Homo sapiens, NCI-H460, 72 h
Description: Antiproliferative activity against human NCI-H460 cells assessed as inhibition of cell growth incubated for 72 hrs by CCK-8 assay

MCF7 = assay: cells; conditions: Homo sapiens, MCF7, 72 h
Description: Antiproliferative activity against human MCF7 cells assessed as inhibition of cell growth incubated for 72 hrs by CCK-8 assay

SMILES: Cc1ccc(-c2cc3c(cc2-c2ccc(C#N)cc2)c(C(=O)N2CCC(N)CC2)cn3S(=O)(=O)c2ccc(F)cc2)cc1
- half-life [1]: 2.42 h
- microsomal CLint [2]: 9.6 µL/min/mg
- CLint scaled [3]: 8.6 mL/min/kg
- remaining at 1 h [4]: 102%
- inhibition at 20 min, 10 µM (CYP1A2): 0%
- inhibition at 20 min, 10 µM (CYP2C9): 47.7%
- inhibition at 20 min, 10 µM (CYP2C19): 17.5%
- inhibition at 20 min, 10 µM (CYP2D6): 2.9%
- Cmax [5]: 46.5 ng/mL
- half-life [6]: 6.27 h
- bioavailability [7]: 7.49%
- half-life [8]: 8.78 h
- clearance [9]: 35.5 mL/min/kg
- Vd [10]: 17.4 L/kg
- AUC(0-inf) [11]: 1450 ng·h/mL
- inhibition (A549 [12]): Active
- Activity (A549 [13]): Active
- inhibition [14]: Dose-Dependent Effect
- inhibition [15]: Dose-Dependent Effect
- Activity (A549 [16]): 52.5%
- Activity (A549 [17]): Dose-Dependent Effect
- Activity (A549 [18]): Dose-Dependent Effect
- Activity (A549 [19]): Active
- Activity [20]: Non-Toxic
- Activity (A549 [21]): Active
- Activity (A549 [22]): Active
- Activity (A549 [23]): Active
- Activity (A549 [24]): Active
- Activity (A549 [25]): Active
- Activity (A549 [26]): Active
- Activity (A549 [27]): Active
- Activity (A549 [28]): Active
- Activity (A549 [29]): Active
- IC50 (NCI-H460): 3.8 µM
- IC50 (MCF7): 3.4 µM
